The structures appear in SMILES notation. Activity calls are given as the source filed them.

For data set [1], the target named is T1, 5-hydroxytryptamine receptor 1A (Homo sapiens, UniProt P08908).
T1 sequence (P08908 whole entry): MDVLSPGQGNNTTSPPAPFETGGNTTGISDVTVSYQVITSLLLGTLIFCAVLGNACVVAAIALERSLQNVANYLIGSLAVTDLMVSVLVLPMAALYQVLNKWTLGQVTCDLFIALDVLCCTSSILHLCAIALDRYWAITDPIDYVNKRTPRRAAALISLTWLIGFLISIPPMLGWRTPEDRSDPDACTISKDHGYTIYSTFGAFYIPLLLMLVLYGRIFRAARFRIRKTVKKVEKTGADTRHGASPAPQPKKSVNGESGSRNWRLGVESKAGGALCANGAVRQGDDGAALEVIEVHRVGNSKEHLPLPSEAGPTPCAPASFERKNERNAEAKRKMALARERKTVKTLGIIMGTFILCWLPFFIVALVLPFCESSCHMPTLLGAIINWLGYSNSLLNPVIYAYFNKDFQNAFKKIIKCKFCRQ
Put plainly: Binding affinity to 5-HT1A (unknown origin).

Data set [2] is described as follows: Antimicrobial activity against clinical strain Bifidobacterium assessed as reduction in bacterial growth at 0.195 to 100 ug/ml by disk diffusion method. Conditions: dose 0.195-100 µg/ml.
The test system of data set [3] is Hoylesella loescheii. Put plainly: Antimicrobial activity against Prevotella loescheii ATCC 15930 assessed as reduction in bacterial growth at 0.195 to 100 ug/ml by disk diffusion method. Conditions: in vivo, dose 0.195-100 µg/ml. The format is organism-based, DSM 19665 = JCM 12249 = ATCC 15930.
Data set [4] is described as follows: in vitro. Conditions: mouse, microsomes.
Description: Metabolic stability in mouse microsome assessed as intrinsic clearance
Data set [5] concerns Mus musculus. Briefly: Anticonvulsant activity in ip dosed mouse assessed as protection against current-induced seizure by maximal electroshock seizure test. The format is functional.
Data set [6] relates to Enterococcus faecalis. Briefly: Antimicrobial activity against Enterococcus faecalis ATCC 29212 assessed as reduction in bacterial growth at 0.195 to 100 ug/ml by serial dilution method. Conditions: in vivo, dose 0.195-100 µg/ml. The format is organism-based.
A short description of data set [7]: Protection index, ratio of TD50 for toxicity in ip dosed mouse to ED50 for anticonvulsant activity in ip dosed mouse. Conditions: in vivo, read-out: PI. The format is organism-based.
Data set [8] in a line: Toxicity in ip dosed mouse assessed as motor impairment by rotarod test. The format is organism-based. Conditions: in vivo.
Data set [9] has as its system Escherichia coli. Put plainly: Antimicrobial activity against Escherichia coli ATCC 25922 assessed as reduction in bacterial growth at 0.195 to 100 ug/ml by serial dilution method. The format is organism-based. Conditions: in vivo, dose 0.195-100 µg/ml.
Data set [10] can be described thus: in vitro. Conditions: mouse, microsomes. This is another data set of the same source.
Description: Metabolic stability in mouse microsome assessed as half life
In data set [11] the test system is Staphylococcus aureus. Briefly: Antimicrobial activity against clinical strain Staphylococcus aureus assessed as reduction in bacterial growth at 0.195 to 100 ug/ml by serial dilution method. The format is organism-based. Conditions: in vivo, dose 0.195-100 µg/ml.
Data set [12] concerns Mus musculus. Briefly: Antiallodynic activity in mouse model of OXA-induced peripheral neuropathy assessed as mean latency time to nocifensive response at 18 mg/kg, ip administered after 3 hrs of OXA stimulation and measured after 1 hr by cold plate method (reference value: 59.76 +/- 0.16 sec). The format is functional.
Data set [13] in a line: Drug metabolism in mouse microsome assessed as formation of monohydroxylated metabolite. The format is ADME. Conditions: microsomes.
Data set [14] in a line: Antioxidant activity assessed as DPPH radical scavenging activity at 125 to 1000 uM by microplate method. Conditions: dose microM 125-1000. The format is functional.
The test system of data set [15] is Mus musculus. Put plainly: Antiallodynic activity in mouse model of OXA-induced peripheral neuropathy assessed as mean paw withdrawal threshold at 18 mg/kg, ip administered after 7 days of OXA stimulation and measured after 1 hr by Von-frey method (reference value: 3.192 +/- 0.181 g). The format is functional.
Data set [16] concerns Mus musculus. Put plainly: Antiallodynic activity in mouse model of OXA-induced peripheral neuropathy assessed as mean latency time to nocifensive response at 18 mg/kg, ip administered after 7 days of OXA stimulation and measured after 1 hr by cold plate method (reference value: 57.64 +/- 1.267 sec). The format is functional.
Data set [17] relates to Salmonella enterica. Put plainly: Antimicrobial activity against Salmonella enterica ATCC 51957 assessed as reduction in bacterial growth at 0.195 to 100 ug/ml by serial dilution method. The format is organism-based. Conditions: in vivo, dose 0.195-100 µg/ml.
Data set [18] has as its system Bacteroides fragilis. Put plainly: Antimicrobial activity against Bacteroides fragilis ATCC 25285 assessed as reduction in bacterial growth at 0.195 to 100 ug/ml by disk diffusion method. The format is organism-based. Conditions: in vivo, dose 0.195-100 µg/ml.
Data set [19] concerns Escherichia coli. Put plainly: Antimicrobial activity against Escherichia coli ATCC 35218 assessed as reduction in bacterial growth at 0.195 to 100 ug/ml by serial dilution method. The format is organism-based. Conditions: in vivo, dose 0.195-100 µg/ml.
Data set [20] deals with Staphylococcus aureus. Briefly: Antimicrobial activity against Staphylococcus aureus ATCC 25923 assessed as reduction in bacterial growth at 0.195 to 100 ug/ml by serial dilution method. The format is organism-based. Conditions: in vivo, dose 0.195-100 µg/ml.
A short description of data set [21]: Toxicity in mouse assessed as lethality at 10 mg/kg, ip. Conditions: in vivo. The format is organism-based.
For data set [22], the system named is Mus musculus. Put plainly: Antiallodynic activity in mouse model of OXA-induced peripheral neuropathy assessed as mean paw withdrawal threshold at 18 mg/kg, ip administered after 3 hrs of OXA stimulation and measured after 1 hr by Von-frey method (reference value: 3.144 +/- 0.169 g). The format is functional.
For data set [23], the system named is Clostridioides difficile. Briefly: Antimicrobial activity against clinical strain Clostridium difficile assessed as reduction in bacterial growth at 0.195 to 100 ug/ml by disk diffusion method. The format is organism-based. Conditions: in vivo, dose 0.195-100 µg/ml.
A short description of data set [24]: Toxicity in mouse assessed as lethality at 30 mg/kg, ip. Conditions: in vivo. The format is organism-based.
Data set [25] is described as follows: Toxicity in mouse assessed as lethality at 50 mg/kg, ip. The format is organism-based. Conditions: in vivo.
The subject of data set [26] is Mus musculus. Put plainly: Antiallodynic activity in mouse model of OXA-induced peripheral neuropathy assessed as mean paw withdrawal threshold at 15 mg/kg, ip administered after 7 days of OXA stimulation and measured after 1 hr by Von-frey method (reference value: 3.192 +/- 0.181 g). The format is functional.
Data set [27] deals with Mus musculus. Briefly: Antiallodynic activity in mouse model of OXA-induced peripheral neuropathy assessed as mean paw withdrawal threshold at 15 mg/kg, ip administered after 3 hrs of OXA stimulation and measured after 1 hr by Von-frey method (reference value: 3.144 +/- 0.169 g). The format is functional.
For data set [28], the system named is Mus musculus. Put plainly: Antiallodynic activity in mouse model of OXA-induced peripheral neuropathy assessed as mean latency time to nocifensive response at 15 mg/kg, ip administered after 7 days of OXA stimulation and measured after 1 hr by cold plate method (reference value: 57.64 +/- 1.267 sec). The format is functional.
The subject of data set [29] is Mus musculus. Briefly: Antiallodynic activity in mouse model of OXA-induced peripheral neuropathy assessed as mean latency time to nocifensive response at 15 mg/kg, ip administered after 3 hrs of OXA stimulation and measured after 1 hr by cold plate method (reference value: 59.76 +/- 0.16 sec). The format is functional.

The compound `Cc1cc(C)c(OCCCN2CCCC(O)C2)c(C)c1.Cl` (racemic) had an inhibitory constant (Ki) in [1] of 3390 nM. Further, the Activity result in [2] is recorded as “Non-Toxic”; in data set [3], “Non-Toxic”; in data set [6] it was “Non-Toxic”; in data set [9] it was “Non-Toxic”; in data set [11], “Non-Toxic”; in data set [15] it was 1.947 g. The Activity result in data set [17] is “Non-Toxic”; in data set [18], “Non-Toxic”; in data set [19], “Non-Toxic”; in [20], “Non-Toxic”; in data set [21], “Non-Toxic”; in [22] it was 1.958 g. For the same compound, the Activity result in data set [23] and in data set [24] was “Non-Toxic” throughout. In addition, the microsomal CLint in data set [4] came out at 44.5 µL/min/mg. Moreover, the ED50 in data set [5] came to 18.2 mg/kg. Also, the selectivity ratio in data set [7] worked out at 3.86. The TD50 in data set [8] worked out at 70.2 mg/kg. Besides, the half-life in [10] is 38.9 min. Also, the Time came out at 18.18 s in data set [12] and 10.65 s in data set [16]. Further, the Drug metabolism result in data set [13] was “Metabolite_Detected”. Besides, the outcome in data set [14] was inactive.
Turning to `Cc1cc(C)c(OCCCN[C@@H]2CCCC[C@H]2O)c(C)c1` (relative stereo), in [1], affinity was put at a Ki of 2370 nM. Besides, the microsomal CLint in data set [4] came to 128 µL/min/mg. The Activity entry in [25] is given as “Non-Toxic”; in data set [26], 1.958 g; in [27], 1.999 g. Moreover, the ED50 in [5] is 14.8 mg/kg. Further, in [7], the selectivity ratio was 2.9. Also, the TD50 in data set [8] stood at 42.9 mg/kg. This compound also had a half-life in data set [10] of 27.2 min. Further, in data set [13], the Drug metabolism result was “Metabolite_Detected”. The Time in data set [28] is reported as 7.09 s; in data set [29], 19.35 s. Besides, the outcome in data set [14] was inactive.

These data come from ChEMBL document CHEMBL4725268, “Anticonvulsant and analgesic in neuropathic pain activity in a group of new aminoalkanol derivatives” (Bioorg Med Chem Lett, 2020).
